# From patent publication US4933347A, “Diamidines and bis(imidazolines) for the treatment of and prophylaxis against pneumocystis carinii pneumonia” (University of North Carolina at Chapel Hill, priority 1988, dated 1990)
# Experiments:
# Pneumocystis carinii [1] = test: Treatment of Pneumocystis carinii pneumonia in Sprague-Dawley rats (extent of disease by histologic score); format: in vivo, male Sprague-Dawley rats; details: for Extent of Disease by Histologic Score: number of animals with score 2: 5-10% lung involved or small foci of infection
# [2] = Toxicity of amidines in rats (standard laboratory procedure); format: in vivo; details: dose as in value; else not given in Table XIII (10 mg/kg test dose)
# Pneumocystis carinii [3] = details: in vivo; cited from earlier work
# [4] = intramuscular and intravenous routes; cited from earlier work
SMILES,"Extent of Disease by Histologic Score: number of animals with score 0.5 (Pneumocystis carinii [1]; 0.1 mg/kg, 0.5 = <10 cysts found per 2 sections) [animals]","Extent of Disease by Histologic Score: number of animals with score 1 (Pneumocystis carinii [1]; 0.1 mg/kg, 1 = scattered cysts, <5% of lung involved) [animals]","Extent of Disease by Histologic Score: number of animals with score 2 (Pneumocystis carinii [1]; 0.1 mg/kg, 2 = scattered cysts) [animals]","Extent of Disease by Histologic Score: number of animals with score 3 (Pneumocystis carinii [1]; 0.1 mg/kg, 3 = scattered cysts, 10-50% of lung involved) [animals]","Extent of Disease by Histologic Score: number of animals with score 4 (Pneumocystis carinii [1]; 0.1 mg/kg, 4 = >50% of lung involved) [animals]","Extent of Disease by Histologic Score: number of animals with score 0.5 (Pneumocystis carinii [1]; 1 mg/kg, 0.5 = <10 cysts found per 2 sections) [animals]","Extent of Disease by Histologic Score: number of animals with score 1 (Pneumocystis carinii [1]; 1 mg/kg, 1 = scattered cysts, <5% of lung involved) [animals]","Extent of Disease by Histologic Score: number of animals with score 2 (Pneumocystis carinii [1]; 1 mg/kg, 2 = scattered cysts) [animals]","Extent of Disease by Histologic Score: number of animals with score 3 (Pneumocystis carinii [1]; 1 mg/kg, 3 = scattered cysts, 10-50% of lung involved) [animals]","Extent of Disease by Histologic Score: number of animals with score 4 (Pneumocystis carinii [1]; 1 mg/kg, 4 = >50% of lung involved) [animals]","Extent of Disease by Histologic Score: number of animals with score 4 (Pneumocystis carinii [1]; 10 mg/kg i.v. daily, 14 days, 4 = >50% of lung involved with many intense areas of focal infection) [animals]","Extent of disease by histologic score (combined): number of animals in scoring group 0.5 (Pneumocystis carinii [1]; Table XII composite, 10 mg/kg, 0.5 = <10 cysts found per 2 sections) [animals]","Extent of disease by histologic score (combined): number of animals in scoring group 1 (Pneumocystis carinii [1]; Table XII composite, 10 mg/kg, 1 = scattered cysts, <5% of lung involved) [animals]","Extent of disease by histologic score (combined): number of animals in scoring group 2 (Pneumocystis carinii [1]; Table XII composite, 10 mg/kg, 2 = scattered cysts, 5-10% of lung involved) [animals]","Extent of disease by histologic score (combined): number of animals in scoring group 3 (Pneumocystis carinii [1]; Table XII composite, 10 mg/kg, 3 = scattered cysts, 10-50% of lung involved) [animals]","Extent of disease by histologic score (combined): number of animals in scoring group 4 (Pneumocystis carinii [1]; Table XII composite, 10 mg/kg, 4 = >50% of lung involved) [animals]",Toxicity of amidines: Effect [2],Known effectiveness against Pneumocystis carinii pneumonia (Pneumocystis carinii [3]),Side effects / toxicity in patients [4]
"N=C(N)c1ccc(OCCCCCOc2ccc(C(=N)N)cc2)cc1 [Example 12, Pentamidine, reference compound]",0,0,0,7,5,1,0,3,5,3,0,20,26,12,2,0,"Some hypotension, edematous tails","effective in the treatment of, or prophylaxis against Pneumocystis carinii pneumonia",
N=C(N)c1ccc(OCCCCCOc2ccc(C(=N)N)cc2)cc1 [pentamidine isethionate],,,,,,,,,,,,,,,,,,,"Some fatalities have been attributed to severe hypotension, hypoglycemia, and cardiac arrhythmias"
